# Assays:
# Type in all cases: in vivo
# [1] = system: sedge, umbrella (small-flower umbrella sedge, Cyperus difformis); assay: Test B flooded paddy test; details: Flood, 250 g ai/ha; 0 to 100 scale where 0 is no effect and 100 is complete control; 13 to 15 d
# Description: (§1) Plant species in the flooded paddy test selected from rice (Oryra sativa), sedge, umbrella (small-flower umbrella sedge, Cyperus difformis), ducksalad (Heteranthera limosa), and barnyardgrass (Echinochloa crus-galli) were grown to the 2-leaf stage for testing. At time of treatment, test pots were flooded to 3 cm above the soil surface, treated by application of test compounds directly to the paddy water, and then maintained at that water depth for the duration of the test. Treated plants and controls were maintained in a greenhouse for 13 to 15 d, after which time all species were compared to controls and visually evaluated. Plant response ratings, summarized in Table B, are based on a scale of 0 to 100 where 0 is no effect and 100 is complete control. A dash (-) response means no test result.
# rice (Oryra sativa) = assay: Test B flooded paddy test; details: Flood, 250 g ai/ha; 0 to 100 scale where 0 is no effect and 100 is complete control; 13 to 15 d
# Description: as §1
# [2] = system: barnyardgrass (Echinochloa crus-galli); assay: Test B flooded paddy test; details: Flood, 250 g ai/ha; 0 to 100 scale where 0 is no effect and 100 is complete control; 13 to 15 d
# Description: as §1
# [3] = system: ducksalad (Heteranthera limosa); assay: Test B flooded paddy test; details: Flood, 250 g ai/ha; 0 to 100 scale where 0 is no effect and 100 is complete control; 13 to 15 d
# Description: as §1
# [4] = system: ryegrass, Italian (Italian ryegrass, Lolium multiflorum); assay: Test A preemergence; details: Preemergence
# Excerpt: (§2) Seeds of plant species selected from barnyardgrass (Echinochloa crus-galli), Kochia (Kochia scoparia), ragweed (common ragweed, Ambrosia elatior), ryegrass, Italian (Italian ryegrass, Lolium multiflorum), crabgrass, large (Digitaria sanguinalis), giant foxtail (Setaria faberii), green foxtail (Setaria viridis), morningglory (Ipomoea spp.), pigweed (Amaranthus retroflexus), velvetleaf (Abutilon theophrasti), wheat (Triticum aestivum), and corn (Zea mays) were planted into a blend of loam soil and sand and treated preemergence with a directed soil spray using test chemicals formulated in anon-phytotoxic solvent mixture which included a surfactant.
# (§3) At the same time, plants selected from these crop and weed species and also blackgrass (Alopecurus myosuroides), and Galium (catchweed bedstraw, Galium aparine) were planted in pots containing the same blend of loam soil and sand and treated with postemergence applications of test chemicals formulated in the same manner. Plants ranged in height from 2 to 10 cm and were in the one- to two-leaf stage for the postemergence treatment. Treated plants and untreated controls were maintained in a greenhouse for approximately 10 d, after which time all treated plants were compared to untreated controls and visually evaluated for injury. Plant response ratings, summarized in Table A, are based on a 0 to 100 scale where 0 is no effect and 100 is complete control. A dash (-) response means no test result.
# [5] = system: ragweed (common ragweed, Ambrosia elatior); assay: Test A preemergence; details: Preemergence
# Excerpt: as §2, §3
# Kochia (Kochia scoparia) [6] = assay: Test A preemergence
# Excerpt: as §2, §3
# [7] = system: giant foxtail (Setaria faberii); assay: Test A preemergence
# Excerpt: as §2, §3
# [8] = system: pigweed (Amaranthus retroflexus); assay: Test A preemergence; details: Preemergence
# Excerpt: as §2, §3
# [9] = system: barnyardgrass (Echinochloa crus-galli); assay: Test A preemergence
# Excerpt: as §2, §3
# [10] = system: ryegrass, Italian (Italian ryegrass, Lolium multiflorum); assay: Test A postemergence
# Excerpt: as §2, §3
# [11] = system: blackgrass (Alopecurus myosuroides); assay: Test A postemergence; details: postemergence
# Excerpt: as §2, §3
# corn (Zea mays) = assay: Test A postemergence; details: postemergence
# Excerpt: as §2, §3
# [12] = system: ragweed (common ragweed, Ambrosia elatior); assay: Test A postemergence
# Excerpt: as §2, §3
# Kochia (Kochia scoparia) [13] = assay: Test A postemergence
# Excerpt: as §2, §3
# [14] = system: Galium (catchweed bedstraw, Galium aparine); assay: Test A postemergence
# Excerpt: as §2, §3
# [15] = system: giant foxtail (Setaria faberii); assay: Test A postemergence
# Excerpt: as §2, §3
# [16] = system: pigweed (Amaranthus retroflexus); assay: Test A postemergence
# Excerpt: as §2, §3
# [17] = system: wheat (Triticum aestivum); assay: Test A postemergence
# Excerpt: as §2, §3
# [18] = system: barnyardgrass (Echinochloa crus-galli); assay: Test A postemergence; details: postemergence
# Excerpt: as §2, §3
# [19] = 125 g ai/ha, visual injury after approximately 10 d, 0 to 100 scale where 0 is no effect and 100 is complete control
# [20] = 500 g ai/ha, visual injury approx. 10 d
# [21] = 125 g ai/ha, preemergence, 0 to 100 scale (0 no effect, 100 complete control)
# [22] = Preemergence, 500 g ai/ha, visual injury approx. 10 d
# [23] = 125 g ai/ha, postemergence, visual injury rating on 0 to 100 scale (0 no effect, 100 complete control), approx. 10 d
# [24] = Postemergence, 500 g ai/ha, 0 to 100 scale where 0 is no effect and 100 is complete control
# [25] = 125 g ai/ha, visual injury rating on 0 to 100 scale (0 no effect, 100 complete control), approx. 10 d
# [26] = 500 g ai/ha, 0 to 100 scale, 0 no effect, 100 complete control
smiles,measurement,setting,value
CN1CC(c2ccc(C(F)(F)F)cc2F)C(C(=O)Nc2cccc(F)c2F)C1=O (stereo not drawn) [Compound 472],"Plant response rating, Sedge, Umbrella",[1],0
same,"Plant response rating, Rice",rice (Oryra sativa),20
same,"Plant response rating, Barnyardgrass",[2],60
same,"Plant response rating, Ducksalad",[3],75
same,"Plant response rating, Ryegrass, Italian",[4]; [19],50
same,"Ryegrass, Italian plant response rating (0 to 100 scale, 0 is no effect, 100 is complete control)",[4]; [20],80
same,"Plant response rating, Ragweed",[5]; [19],0
same,"Ragweed plant response rating (0 to 100 scale, 0 is no effect, 100 is complete control)",[5]; [20],50
same,"Plant response rating, Kochia",Kochia (Kochia scoparia) [6]; [21],80
same,"Kochia plant response rating (0 to 100 scale, 0 is no effect, 100 is complete control)",Kochia (Kochia scoparia) [6]; [22],80
same,"Plant response rating, Foxtail, Giant",[7]; [21],90
same,"Foxtail, Giant plant response rating (0 to 100 scale, 0 is no effect, 100 is complete control)",[7]; [22],90
same,"Plant response rating, Pigweed",[8]; [19],80
same,"Pigweed plant response rating (0 to 100 scale, 0 is no effect, 100 is complete control)",[8]; [20],90
same,"Plant response rating, Barnyardgrass",[9]; [21],90
same,"Barnyardgrass plant response rating (0 to 100 scale, 0 is no effect, 100 is complete control)",[9]; [22],90
same,"Ryegrass, Italian plant response rating",[10]; [23],40
same,"Plant response rating, Ryegrass, Italian",[10]; [24],60
same,Blackgrass plant response rating,[11]; [25],30
same,"Plant response rating, Blackgrass",[11]; [26],60
same,Corn plant response rating,corn (Zea mays); [25],40
same,"Plant response rating, Corn",corn (Zea mays); [26],80
same,Ragweed plant response rating,[12]; [23],0
same,"Plant response rating, Ragweed",[12]; [24],0
same,Kochia plant response rating,Kochia (Kochia scoparia) [13]; [23],60
same,"Plant response rating, Kochia",Kochia (Kochia scoparia) [13]; [24],70
same,Galium plant response rating,[14]; [23],50
same,"Plant response rating, Galium",[14]; [24],50
same,"Foxtail, Giant plant response rating",[15]; [23],80
same,"Plant response rating, Foxtail, Giant",[15]; [24],90
same,Pigweed plant response rating,[16]; [23],60
same,"Plant response rating, Pigweed",[16]; [24],60
same,Wheat plant response rating,[17]; [23],30
same,"Plant response rating, Wheat",[17]; [24],60
same,Barnyardgrass plant response rating,[18]; [25],90
same,"Plant response rating, Barnyardgrass",[18]; [26],90

# Source: patent publication US12077503B2, “Substituted cyclic amides and their use as herbicides” (FMC CORPORATION, priority 2015, dated 2024)
